Data on 22 compounds can be found in PubChem BioAssay AID330 (DTP/NCI, 2004).

The subject of the experiment is P388 leukemia ip, CD2F1 mice, survival T/C. Kind of experiment: NCI In Vivo Anticancer Drug Screen. Data for tumor model P388 Leukemia (intraperitoneal) in CD2F1 (CDF1) mice. The note with it: endpoint: median survival time, higher = longer survival. In short, it runs like this:
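Mice carrying the transplanted tumor received test compound or vehicle. Survival was recorded in each group, and the value is the treated-group measurement divided by that of the vehicle-treated control group.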

[1] abbreviates: dose: 12.5 mg/kg/injection, schedule: Q01DX005 (ip), vehicle: saline with Tween-80.
Setting [2] is: dose: 25.0 mg/kg/injection, schedule: Q01DX005 (ip), vehicle: saline with Tween-80.
[3] abbreviates: dose: 50.0 mg/kg/injection, schedule: Q01DX005 (ip), vehicle: saline with Tween-80.
Setting [4] is: dose: 100.0 mg/kg/injection, schedule: Q01DX005 (ip), vehicle: saline with Tween-80.
Setting [5] is: dose: 200.0 mg/kg/injection, schedule: Q01DX005 (ip), vehicle: saline with Tween-80.
[6] abbreviates: dose: 50.0 mg/kg/injection, schedule: Q01DX009 (ip), vehicle: saline with Tween-80.
Where [7] appears, read: dose: 25.0 mg/kg/injection, schedule: Q01DX005 (ip), vehicle: Klucel (hydroxypropylcellulose) (HPC).
Setting [8] is: dose: 50.0 mg/kg/injection, schedule: Q01DX005 (ip), vehicle: Klucel (hydroxypropylcellulose) (HPC).

Where “and” joins values, the source holds several entries; their conditions need not be identical. Identical values can stand only once. Inconclusive results and toxic doses are left out. Peptide text beside a SMILES is read from it.

In the case of `O=CNC(Cc1ccc(N(CCCl)CCCl)cc1)C(=O)O` (centres undefined), the T/C was 159 % of control (dose: 6.25 mg/kg/injection, schedule: Q01DX009 (ip), vehicle: saline sonified); 170 % of control (dose: 6.6 mg/kg/injection, schedule: Q04DX003 (ip), vehicle: saline); 160 % of control (dose: 10.0 mg/kg/injection, schedule: Q04DX003 (ip), vehicle: saline); 168 % of control (dose: 12.5 mg/kg/injection, schedule: Q01DX009 (ip), vehicle: saline sonified); 170 % of control (dose: 15.0 mg/kg/injection, schedule: Q04DX003 (ip), vehicle: saline); 213 % of control (dose: 25.0 mg/kg/injection, schedule: Q01DX009 (ip), vehicle: saline sonified).
Consider `CCC(c1ccc(OC)cc1)C(NC(=S)Nc1ccc(Cl)cc1)c1ccc(OC)cc1` (centres undefined), for which the T/C by setting is: (dose: 100.0 mg/kg/injection, schedule: Q01DX001 (ip), vehicle: saline with Tween-80) 90 % of control; (dose: 200.0 mg/kg/injection, schedule: Q01DX001 (ip), vehicle: saline with Tween-80) 90 % of control; (dose: 400.0 mg/kg/injection, schedule: Q01DX001 (ip), vehicle: saline with Tween-80) 109 % of control.
Consider `O=[C-]/C=C\[C-]=O.[C-]#[O+].[C-]#[O+].[C-]#[O+].[C-]#[O+].[Fe+2]`, for which the T/C under setting [1] was 112 % of control, the T/C under setting [2] was 110 % of control and the T/C under setting [3] is 100 % of control.
As for `C[C@@H]1O[C@H]2O[C@@H]3[C@@H](C)O[C@@H](c4ccc5c(c4O)C(=O)c4ccc(C[C@@](C)(O)CC(=O)O)c(O)c4C5=O)C[C@H]3O[C@H]2CC1=O`, the T/C runs as follows: (dose: 23.5 mg/kg/injection, schedule: Q01DX005 (ip), vehicle: Klucel (hydroxypropylcellulose) (HPC)) 105 % of control; (dose: 47.0 mg/kg/injection, schedule: Q01DX005 (ip), vehicle: Klucel (hydroxypropylcellulose) (HPC)) 105 % of control; (dose: 94.0 mg/kg/injection, schedule: Q01DX005 (ip), vehicle: Klucel (hydroxypropylcellulose) (HPC)) 97 % of control.
`Cc1ccccc1N1CCN(c2ccccc2C)C1=C1N(c2ccccc2C)CCN1c1ccccc1C`: the T/C is, setting by setting: (dose: 85.0 micrograms/kg/injection, schedule: Q01DX009 (ip), vehicle: DMSO) 101 % of control; (dose: 190.0 micrograms/kg/injection, schedule: Q01DX009 (ip), vehicle: DMSO) 93 % of control; (dose: 380.0 micrograms/kg/injection, schedule: Q01DX009 (ip), vehicle: DMSO) 93 % of control.
With `O=C1c2ccccc2C(=O)C2C(=O)c3ccccc3C(=O)C12` (centres undefined), the T/C reads like this: under setting [3], 95 % of control; under setting [4], 95 % of control; under setting [5], 103 % of control.
Take `O=C1c2ccccc2C(=O)c2c3c(cc(NCCNCCO)c21)N(CCO)CCN3`: the T/C was 104 % of control (dose: 6.25 mg/kg/injection, schedule: Q01DX009 (ip), vehicle: DMSO); 123 % of control (dose: 12.5 mg/kg/injection, schedule: Q01DX009 (ip), vehicle: DMSO); 155 % of control (dose: 25.0 mg/kg/injection, schedule: Q01DX009 (ip), vehicle: DMSO); 163 % of control (dose: 50.0 mg/kg/injection, schedule: Q01DX009 (ip), vehicle: DMSO); 101 % of control (dose: 100.0 mg/kg/injection, schedule: Q01DX009 (ip), vehicle: DMSO); 93 % of control (dose: 200.0 mg/kg/injection, schedule: Q01DX009 (ip), vehicle: DMSO).
As to `C=CC[P+](C)(c1ccccc1)c1ccccc1`, the T/C (dose: 0.78 mg/kg/injection, schedule: Q01DX009 (ip), vehicle: saline) was 94 % of control; the T/C (dose: 1.56 mg/kg/injection, schedule: Q01DX009 (ip), vehicle: saline) is 97 % of control; the T/C (dose: 3.13 mg/kg/injection, schedule: Q01DX009 (ip), vehicle: saline) was 106 % of control.
With `CCC(O)(CC)/C(C)=N/O`, the T/C under setting [6] is 91 % of control; the T/C (dose: 100.0 mg/kg/injection, schedule: Q01DX009 (ip), vehicle: saline with Tween-80) was 89 % of control; the T/C (dose: 200.0 mg/kg/injection, schedule: Q01DX009 (ip), vehicle: saline with Tween-80) is 94 % of control.
In the case of `Cc1cc(N=[N+]=[N-])c2cc(C3CCCCC3)ccc2n1`, the T/C (dose: 60.0 mg/kg/injection, schedule: Q01DX005 (ip), vehicle: saline with Tween-80) is 94 % of control; the T/C (dose: 120.0 mg/kg/injection, schedule: Q01DX005 (ip), vehicle: saline with Tween-80) is 93 % of control; the T/C (dose: 240.0 mg/kg/injection, schedule: Q01DX005 (ip), vehicle: saline with Tween-80) is 92 % of control.
`CCSc1nc2ccc(N=Cc3ccc(NS(=O)(=O)c4ccccc4)cc3O)cc2s1`: the T/C (dose: 50.0 mg/kg/injection, schedule: Q01DX009 (ip), vehicle: Klucel (hydroxypropylcellulose) (HPC)) was 116 % of control and the T/C (dose: 100.0 mg/kg/injection, schedule: Q01DX009 (ip), vehicle: Klucel (hydroxypropylcellulose) (HPC)) was 103 % of control.
Take `NCCSSc1ccccc1[N+](=O)[O-]`: the T/C by setting is: (dose: 12.5 mg/kg/injection, schedule: Q01DX005 (ip), vehicle: Klucel (hydroxypropylcellulose) (HPC)) 98 % of control; under setting [7], 94 % of control; under setting [8], 98 % of control and 90 % of control.
As for `c1ccc(C23CC4CCCCC4CC2O3)cc1` (centres undefined), the T/C runs as follows: (dose: 100.0 mg/kg/injection, schedule: Q04DX002 (ip), vehicle: Klucel (hydroxypropylcellulose) (HPC)) 98 % of control; (dose: 200.0 mg/kg/injection, schedule: Q04DX002 (ip), vehicle: Klucel (hydroxypropylcellulose) (HPC)) 111 % of control; (dose: 400.0 mg/kg/injection, schedule: Q04DX002 (ip), vehicle: Klucel (hydroxypropylcellulose) (HPC)) 104 % of control.
Consider `COc1cc(CC2COC(O)C2(O)Cc2ccc(O)c(OC)c2)ccc1O` (centres undefined), for which the T/C (dose: 8.25 mg/kg/injection, schedule: Q01DX005 (ip), vehicle: Klucel (hydroxypropylcellulose) (HPC)) is 101 % of control; the T/C (dose: 16.5 mg/kg/injection, schedule: Q01DX005 (ip), vehicle: Klucel (hydroxypropylcellulose) (HPC)) is 101 % of control; the T/C (dose: 33.0 mg/kg/injection, schedule: Q01DX005 (ip), vehicle: Klucel (hydroxypropylcellulose) (HPC)) is 106 % of control; the T/C (dose: 66.0 mg/kg/injection, schedule: Q01DX005 (ip), vehicle: Klucel (hydroxypropylcellulose) (HPC)) was 92 % of control.
As for `NC(Cc1cnc[nH]1)C(=O)N1CCCC1C(=O)NC(CCC(=O)O)C(=O)O` (stereo not drawn) (H-His-Pro-Glu-OH; configuration not given here), the T/C was 102 % of control (dose: 7.5 mg/kg/injection, schedule: Q01DX009 (ip), vehicle: saline); 100 % of control (dose: 15.0 mg/kg/injection, schedule: Q01DX009 (ip), vehicle: saline); 109 % of control (dose: 30.0 mg/kg/injection, schedule: Q01DX009 (ip), vehicle: saline).
With `Cc1cc(C)[n+]2n1C(=O)C(c1ccccc1)=C2[O-]`, the T/C reads like this: (dose: 50.0 mg/kg/injection, schedule: Q01DX005 (ip), vehicle: Klucel + Tween-80) 101 % of control; (dose: 100.0 mg/kg/injection, schedule: Q01DX005 (ip), vehicle: Klucel + Tween-80) 102 % of control; (dose: 200.0 mg/kg/injection, schedule: Q01DX005 (ip), vehicle: Klucel + Tween-80) 101 % of control.
On to `O=C(O)CCN(Cl)Cl`, for which the T/C runs as follows: (dose: 60.0 mg/kg/injection, schedule: Q01DX005 (ip), vehicle: saline) 98 % of control; (dose: 120.0 mg/kg/injection, schedule: Q01DX005 (ip), vehicle: saline) 104 % of control; (dose: 240.0 mg/kg/injection, schedule: Q01DX005 (ip), vehicle: saline) 95 % of control.
Take `Cc1c(N=Nc2cccc(Cl)c2Cl)c(-c2ccccc2)nn1C(N)=S`: the T/C under setting [7] was 94 % of control; the T/C under setting [8] is 99 % of control; the T/C (dose: 100.0 mg/kg/injection, schedule: Q01DX005 (ip), vehicle: Klucel (hydroxypropylcellulose) (HPC)) is 96 % of control.
As to `CCOC(=O)c1c[n+](C2OC(COC(=O)c3ccccc3)C(OC(=O)c3ccccc3)C2OC(=O)c2ccccc2)ccc1N` (centres undefined), the T/C is 98 % of control under setting [1]; 107 % of control under setting [2]; 105 % of control and 92 % of control under setting [3].
For the compound `O=c1[nH]cnc2[nH]ccc12`, the T/C under setting [6] is 106 % of control.
On to `CCCN(CCNc1cc(OC)cc2cccnc12)C(C)CC` (centres undefined), for which the T/C runs as follows: (dose: 50.0 mg/kg/injection, schedule: Q01DX005 (ip), vehicle: saline) 107 % of control; (dose: 100.0 mg/kg/injection, schedule: Q01DX005 (ip), vehicle: saline) 92 % of control.
With `O=C(CCc1ccccc1C(=O)O)c1ccccc1O`, the T/C reads like this: under setting [3], 94 % of control; under setting [4], 105 % of control; under setting [5], 93 % of control.
